Source: patent US9643964B2, “3-(2-aminopyrimidin-4-yl)-5-(3-hydroxypropynyl)-1H-pyrrolo[2,3-C]pyridine derivatives as NIK inhibitors for the treatment of cancer” (Janssen Pharmaceutica NV, priority 2013, dated 2017)

Columns and labels:
JJN-3 cells = assay: Biological Assay C: antiproliferative activity on JJN-3 cells (CellTiter-Glo); format: cell-based, human; conditions: 72 hr treatment, averaged values
Description: (§1) Determination of Antiproliferative Activity on LP-1, L-363 and JJN-3 Cells
(§2) All compounds tested were dissolved in DMSO and further dilutions were made in culture medium. Final DMSO concentration was 0.3% (v/v) in cell proliferation assays. Viability was assessed using CellTiter-Glo cell viability assay kit (Promega). The human LP-1, L-363 and JJN-3 cells (DSMZ) were cultured in RPMI 1640 medium supplemented with 2 mM L-glutamine, and 10% fetal calf serum (PAA). Cells were routinely kept as suspension cells at 37° C. in a humidified 5% CO2 atmosphere. Cells were passaged at a seeding density of 0.2×10^6/ml twice a week. Cells were seeded in black tissue culture treated 96-well plates (Perkin Elmer). Densities used for plating ranged from 2,000 to 6,000 cells per well in a total volume of 75 μl medium. After twenty four hours, drugs and/or solvents were added (25 μl) to a final volume of 100 μl. Following 72 hr of treatment plates were removed from the incubator and allowed to equilibrate to room temperature for approx 10 min. 100 μl CellTiter-Glo reagent was added to each well that was then covered (Perkin Elmer Topseal) and shaken on plate shaker for 10 min. Luminescence was measured on a HTS Topcount (Perkin Elmer). Within an experiment, the results for each treatment were the mean of 2 replicate wells. For initial screening purposes, compounds were tested using a 9 point dilution curve (serial 1:3 dilutions). For each experiment, controls (containing no drug) and a blank incubation (containing cells read at the time of compound addition) were run in parallel. The blank value was subtracted from all control and sample values. For each sample, the mean value for cell growth (in relative light units) was expressed as a percentage of the mean value for cell growth of the control.

[1] = target: Recombinant Human NF-kappaB-Inducing Kinase (NIK/MAP3K14) (Homo sapiens, UniProt Q99558); assay: Biological Assay A2: inhibition of auto-phosphorylation of recombinant human NIK/MAP3K14 (AlphaScreen); format: biochemical; conditions: auto-phosphorylation; averaged over all measurements on all batches; read-out: αscreen IC50
Chain of Recombinant Human NF-kappaB-Inducing Kinase (NIK/MAP3K14) (Q99558 whole entry): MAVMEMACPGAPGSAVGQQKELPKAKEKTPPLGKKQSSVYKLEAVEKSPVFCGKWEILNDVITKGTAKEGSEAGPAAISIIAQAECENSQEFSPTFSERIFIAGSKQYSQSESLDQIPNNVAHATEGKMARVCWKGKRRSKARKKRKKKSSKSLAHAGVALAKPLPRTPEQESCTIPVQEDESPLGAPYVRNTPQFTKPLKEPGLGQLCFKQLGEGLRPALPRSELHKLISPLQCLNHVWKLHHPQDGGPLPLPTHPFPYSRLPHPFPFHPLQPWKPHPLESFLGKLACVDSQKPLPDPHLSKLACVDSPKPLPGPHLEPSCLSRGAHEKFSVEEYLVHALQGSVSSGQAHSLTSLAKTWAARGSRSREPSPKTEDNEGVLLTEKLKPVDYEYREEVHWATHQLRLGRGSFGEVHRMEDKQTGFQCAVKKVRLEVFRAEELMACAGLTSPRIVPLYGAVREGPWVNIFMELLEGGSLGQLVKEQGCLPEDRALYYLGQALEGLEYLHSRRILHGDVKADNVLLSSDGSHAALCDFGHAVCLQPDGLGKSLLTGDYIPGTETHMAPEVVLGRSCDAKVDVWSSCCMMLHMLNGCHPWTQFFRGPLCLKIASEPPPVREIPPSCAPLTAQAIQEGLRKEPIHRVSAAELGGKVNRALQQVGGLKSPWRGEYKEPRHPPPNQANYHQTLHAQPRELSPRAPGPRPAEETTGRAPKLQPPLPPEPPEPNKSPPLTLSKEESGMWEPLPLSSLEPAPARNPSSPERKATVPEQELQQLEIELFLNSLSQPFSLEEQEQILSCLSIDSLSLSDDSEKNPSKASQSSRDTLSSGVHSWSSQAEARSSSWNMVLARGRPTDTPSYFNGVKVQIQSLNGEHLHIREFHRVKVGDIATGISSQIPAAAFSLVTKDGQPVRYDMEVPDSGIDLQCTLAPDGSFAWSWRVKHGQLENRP
Description: Inhibition of Auto-Phosphorylation of Recombinant Human NF-kappaB-Inducing Kinase (NIK/MAP3K14) Activity (AlphaScreen®)
NIK/MAP3K14 auto-phosphorylation activity was measured using the AlphaScreen® (αscreen) format (Perkin Elmer). All compounds tested were dissolved in dimethyl sulfoxide (DMSO) and further dilutions were made in assay buffer. Final DMSO concentration was 1% (v/v) in assays. Assay buffer was 50 mM Tris pH 7.5 containing 1 mM EGTA (ethylene glycol tetraacetic acid), 1 mM DTT (dithiothreitol), 0.1 mM Na3VO4, 5 mM MgCl2, 0.01% Tween 20. Assays were carried out in 384 well Alphaplates (Perkin Elmer). Incubations consisted of compound, 25 microM Adenosine-5′-triphosphate (ATP), and 0.2 nM NIK/MAP3K14. Incubations were initiated by addition of GST-tagged NIK/MAP3K14 enzyme, carried out for 1 h at 25° C. and terminated by addition of stop buffer containing anti-phospho-IKK Ser176/180 antibody. Protein A Acceptor and Glutathione-Donor beads were added before reading using an EnVision® Multilabel Plate Reader (Perkin Elmer). Signal obtained in the wells containing blank samples was subtracted from all other wells and IC50's were determined by fitting a sigmoidal curve to % inhibition of control versus Log10 compound concentration.

LP-1 cells = assay: Biological Assay C: antiproliferative activity on LP-1 cells (CellTiter-Glo); format: cell-based, human; conditions: 72 hr treatment, averaged values
Description: as §1, §2

L-363 cells = assay: Biological Assay C: antiproliferative activity on L-363 cells (CellTiter-Glo); format: cell-based, human; conditions: 72 hr treatment, averaged values
Description: as §1, §2

Structure (SMILES)	IC50 [1] [nM]	EC50 (JJN-3 cells; Homo sapiens, JJN-3, 72 h) [nM]	EC50 (LP-1 cells; Homo sapiens, LP-1, 72 h) [nM]	EC50 (L-363 cells; Homo sapiens, L-363, 72 h) [nM]	EC50 (JJN-3 cells) [nM]	EC50 (LP-1 cells) [nM]	EC50 (L-363 cells) [nM]
COCCCn1cc(-c2nc(N)ncc2F)c2cc(C#CC(C)(O)C3CC3)ncc21 (single isomer, unassigned) [Compound 119]	230				700	2100	900
CN1CCC(n2cc(-c3ccnc(N)n3)c3cc(C#CC(C)(C)O)ncc32)CC1 [Compound 77]	88	570	4000	320			
CCN1CCC(n2cc(-c3nc(N)ncc3F)c3cc(C#CC(C)(C)O)ncc32)CC1 [Compound 85]	33	44	190	15			
COCCCn1cc(-c2nc(N)ncc2F)c2cc(C#CC3(O)CCCC3)nc(C3CC3)c21 [Compound 93]	10	310	860	250			
COCCCn1cc(-c2nc(N)ncc2F)c2cc(C#CC3(O)CCCC3)ncc21 [Compound 87]	9	530	1200	450			
CC(=O)NCCCn1cc(-c2ccnc(N)n2)c2cc(C#CC(C)(C)O)ncc21 [Compound 148]	64	9100		7600			
CC(O)(C#Cc1cc2c(-c3nc(N)ncc3F)cn(CCCN3CCOCC3)c2cn1)C1CC1 (stereo not drawn) [Compound 105]	190	200	530	140			
COCC(C)n1cc(-c2nc(N)ncc2F)c2cc(C#CC(C)(O)C3CC3)ncc21 (stereo not drawn) [Compound 128]	76	130	310	120			
[2H]C([2H])([2H])C(O)(C#Cc1cc2c(-c3nc(N)ncc3F)cn(C3CN(C4CC4)C3)c2cn1)C([2H])([2H])[2H] [Compound 160]	82	110	210	93			
COCCCn1cc(-c2nc(N)ncc2F)c2cc(C#CC(C)(C)O)nc(C)c21 [Compound 86]	11	9.2	16	5.9			
CC(O)(C#Cc1cc2c(-c3nc(N)ncc3F)cn(C3CCN(CC4CC4)CC3)c2cn1)C1CC1 (stereo not drawn) [Compound 165]	46	220	460	200			
CC(O)(C#Cc1cc2c(-c3nc(N)ncc3F)cn(CC3CCCO3)c2cn1)C1CC1 (stereo not drawn) [Compound 130]	28	300	640	190			
CC(O)(C#Cc1cc2c(-c3nc(N)ncc3F)cn(C3CCN(CCC(F)(F)F)CC3)c2cn1)C1CC1 (stereo not drawn) [Compound 167]	58	390	1000	390			
CC(C)N1CC(n2cc(-c3ccnc(N)n3)c3cc(C#CC(C)(C)O)ncc32)C1 [Compound 80]	76	310	2500	160			
CN1CCN(C(=O)n2cc(-c3nc(N)ncc3F)c3cc(C#CC(C)(O)C4CC4)ncc32)CC1 (stereo not drawn) [Compound 134]	110	4100	24000	3000			
CC(C)(O)C#Cc1cc2c(-c3nc(N)ncc3C#N)cn(CC3CCOCC3)c2cn1 [Compound 75]	35	540	> 10000	670			
CC(C)(O)C#Cc1cc2c(-c3nc(N)ncc3F)cn(C3CCN(CCF)C3)c2cn1 (stereo not drawn) [Compound 151]	54	46		45			
COCCN1CCC(n2cc(-c3nc(N)ncc3F)c3cc(C#CC(C)(O)C4CC4)ncc32)CC1 (stereo not drawn) [Compound 126]	140				270	640	280
Cc1nc(C#CC(C)(O)C2CC2)cc2c(-c3nc(N)ncc3F)cn(C3COC3)c12 (stereo not drawn) [Compound 133]	50	140	330	66			
COC(C)(C)Cn1cc(-c2nc(N)ncc2F)c2cc(C#CC(C)(O)C3CC3)ncc21 (stereo not drawn) [Compound 101]	38	160	220	160			
COc1cnc(N)nc1-c1cn(C(C)C)c2cnc(C#CC(C)(O)C3CC3)cc12 (stereo not drawn) [Compound 149]	22	38		22			
CC(C)n1cc(-c2nc(N)ncc2F)c2cc(C#CC3(O)CCN(C)C3=O)ncc21 (stereo not drawn) [Compound 150]	210	1600		1500			
CC(O)(C#Cc1cc2c(-c3nc(N)ncc3F)cn(C3CCN(CCC(F)(F)F)C3)c2cn1)C1CC1 (stereo not drawn) [Compound 152]	47	48		75			
COCc1cnc(N)nc1-c1cn(C(C)C)c2cnc(C#CC(C)(O)C3CC3)cc12 (stereo not drawn) [Compound 143]	74	270		170			
CCCCC(=O)NCCCn1cc(-c2ccnc(N)n2)c2cc(C#CC(C)(C)O)ncc21 [Compound 147]	130	1400		530			
COCc1cnc(N)nc1-c1cn(C(C)C)c2cnc(C#CC(C)(C)O)cc12 [Compound 144]	37	35		16			

Now from value to compound, other results behind:

IC50 [1] [nM]	Structure (SMILES)	EC50 (JJN-3 cells; Homo sapiens, JJN-3, 72 h) [nM]	EC50 (LP-1 cells; Homo sapiens, LP-1, 72 h) [nM]	EC50 (L-363 cells; Homo sapiens, L-363, 72 h) [nM]	EC50 (JJN-3 cells) [nM]	EC50 (LP-1 cells) [nM]	EC50 (L-363 cells) [nM]
270	CC(C)N1CC(n2cc(-c3nc(N)ncc3F)c3cc(C#CC(C)(O)C4CC4)ncc32)C1 (stereo not drawn) [Compound 159]	230	320	180			
66	CCN1CCC(n2cc(-c3nc(N)ncc3F)c3cc(C#CC(C)(O)C4CC4)ncc32)C1 (stereo not drawn) [Compound 141]	96	320	56			
100	CC(O)(C#Cc1cc2c(-c3nc(N)ncc3F)cn(C3CN(CC4CC4)C3)c2cn1)C1CC1 (stereo not drawn) [Compound 140]	170	320	140			
21	CC(O)(C#Cc1cc2c(-c3nc(N)ncc3F)cn(C3CCOC3)c2cn1)C1CC1 (stereo not drawn) [Compound 131]	150	440	89			
68	CN1CC(n2cc(-c3nc(N)ncc3F)c3cc(C#CC(C)(O)C4CC4)ncc32)C1 (stereo not drawn) [Compound 135]	180	410	64			
190	COCCCN1CC(n2cc(-c3nc(N)ncc3F)c3cc(C#CC(C)(O)C4CC4)ncc32)C1 (stereo not drawn) [Compound 156]	320		360			
340	COCC(C)N1CC(n2cc(-c3nc(N)ncc3F)c3cc(C#CC(C)(O)C4CC4)ncc32)C1 (stereo not drawn) [Compound 162]	370	790	350			
74	CC(O)(C#Cc1cc2c(-c3nc(N)ncc3F)cn(C3CCN(CCF)C3)c2cn1)C1CC1 (stereo not drawn) [Compound 153]	130		150			
140	CC(O)(C#Cc1cc2c(-c3nc(N)ncc3F)cn(C3CN(CC(F)(F)F)C3)c2cn1)C1CC1 (stereo not drawn) [Compound 145]	260		340			
200	CC(O)(C#Cc1cc2c(-c3nc(N)ncc3F)cn(C3CN(CC4CCCC4)C3)c2cn1)C1CC1 (stereo not drawn) [Compound 146]	450		580			
190	CC(=O)N1CC(n2cc(-c3nc(N)ncc3F)c3cc(C#CC(C)(O)C4CC4)ncc32)C1 (stereo not drawn) [Compound 154]	4700		2800			
140	COCCN1CC(n2cc(-c3nc(N)ncc3F)c3cc(C#CC(C)(O)C4CC4)ncc32)C1 (stereo not drawn) [Compound 155]	400		380			
46	CC(O)(C#Cc1cc2c(-c3nc(N)ncc3F)cn(C3CN(C4CC4)C3)c2cn1)C1CC1 (single isomer, unassigned) [Compound 157]	180		140			
